For one series, the system named is Lymphocyte. Put plainly: Immunosuppressive activity in mouse lymphocyte assessed as suppression of two-way mixed reaction. Format: functional, cell-based.
The nature of series [1]: Toxicity in mouse lymphocytes. Format: cell-based, Lymphocyte. Conditions: read-out: TC50 (the source's name).

`CCCC[C@@H](C)C[C@@H](C)C(=O)N(C)[C@@H](CC(C)C)C(=O)N[C@H](C(=O)N(C)[C@H](C(=O)N1C[C@@H](O)C[C@H]1C(=O)N1C(=O)C=C[C@@H]1C)C(C)C)[C@H](C)OC(C)=O` [MICROCOLIN A]: the EC50 in the series on Lymphocyte stood at 1.5 nM. Moreover, the CC50 in series [1] was 22.6 nM.

Turning to `CCCC[C@@H](C)C[C@@H](C)C(=O)N(C)[C@@H](CC(C)C)C(=O)N[C@H](C(=O)N(C)[C@H](C(=O)N1CCC[C@H]1C(=O)N1C(=O)C=C[C@@H]1C)C(C)C)[C@H](C)OC(C)=O` [MICROCOLIN B], the EC50 with Lymphocyte was determined as 42.7 nM. For the same compound, the CC50 in series [1] is 191 nM.
